Test [1] deals with Liver microsomes. The experiment in a line: Inhibition of lipid peroxidation in rat liver microsome. The format is functional. In general terms: Liver microsomes are vesicles of endoplasmic reticulum, rich in cytochrome P450 enzymes.
The subject of test [2] is Liver microsomes. Briefly: Inhibition of lipid peroxidation in rat liver microsome at 50 ug/mL. It counts as functional.

Values after ≈ are worked out from the molar mass of the structure shown. Active and inactive are the calls of the source. The rule behind the calls is not given here.

The IC50 is the midpoint of a concentration-inhibition curve. Read a high IC50 as lower potency. Compound `NC(=O)Cc1c[nH]c2cc(O)ccc12` returned an IC50 with Liver microsomes [1] of 3.9 µg/mL (≈ 20.5 µM). For the compound `O=C(O)Cc1c[nH]c2ccccc12`, in the test on Liver microsomes [2], the result was inactive. Compound `O=Cc1c[nH]c2cc(O)ccc12` registered an IC50 in the test with Liver microsomes [1] of 4.1 µg/mL (≈ 25.4 µM).
